Structures can show the parent of a compound that is named as a salt.

The first test concerns the target T1, IC-GPCR2 (Homo sapiens, UniProt Q8TDV5).
T1 construct: expressed in transfected cells
T1 sequence (Q8TDV5 1-335 S309L): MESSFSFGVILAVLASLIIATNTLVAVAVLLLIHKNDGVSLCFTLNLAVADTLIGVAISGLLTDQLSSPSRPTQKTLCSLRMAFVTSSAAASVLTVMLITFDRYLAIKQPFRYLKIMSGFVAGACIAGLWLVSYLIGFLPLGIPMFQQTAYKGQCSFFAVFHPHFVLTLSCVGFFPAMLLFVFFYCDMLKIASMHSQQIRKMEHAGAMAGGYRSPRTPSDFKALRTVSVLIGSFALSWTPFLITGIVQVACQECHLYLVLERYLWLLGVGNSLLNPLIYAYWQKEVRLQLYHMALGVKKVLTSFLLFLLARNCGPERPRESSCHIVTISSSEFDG
Nature of the test: Stimulation of cAMP in CHO cell line stably expressing IC-GPCR2 (HTRF cAMP dynamic kit). Type of test: cell-based. The note with it: 3 μM compound; relative to maximal activity of 5-Ethyl-2-{4-[4-(4-tetrazol-1-yl-phenoxymethyl)-thiazol-2-yl]-piperidin-1-yl}-pyrimidine (=100%); IC-GPCR2 stably expressing CHO cells, 30 minutes. The method in brief:
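CHO cells stably expressing IC-GPCR2, with parental CHO as counter-screen, were exposed to compound (0.00003–10 μM) for 30 min in Ham's F12. Intracellular cAMP read by HTRF competitive immunoassay (665/620 nm ratio). Activity at 3 μM expressed as % of maximal signal from a reference agonist.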
Take `CC1CN(C(=O)OC(C)(C)C)CCC1n1ncc(COc2ccc(-n3cnnn3)nc2)n1` (stereo not shown) [Example 83, tert-Butyl 4-(4-((6-(1H-tetrazol-1-yl)pyridin-3-yloxy)methyl)-2H-1,2,3-triazol-2-yl)-3-methylpiperidine-1-carboxylate]: the “% activity at 3 μM” value was determined as 63.14%.

With `CCOC(=O)c1cnc(N2CCC(n3ncc(COc4ccc(-n5cnnn5)nc4)n3)CC2)nc1` [Example 60], the “% activity at 3 μM” value was determined as 27.86%.

For the compound `C[C@H](NC(=O)OC(C)(C)C)C(=O)N1CCC(n2ncc(COc3ccc(-n4cnnn4)nc3)n2)CC1` [Example 54, (S)-tert-Butyl 1-(4-(4-((6-(1H-tetrazol-1-yl)pyridin-3-yloxy)methyl)-2H-1,2,3-triazol-2-yl)piperidin-1-yl)-1-oxopropan-2-ylcarbamate], the “% activity at 3 μM” value turned out to be 36.82%.

For `Cc1nc(-n2cncn2)ccc1OCc1cnn(C2CCN(c3ncc(C(F)(F)F)cn3)CC2)n1` [Example 64, 2-(4-(4-((2-Methyl-6-(1H-1,2,4-triazol-1-yl)pyridin-3-yloxy)methyl)-2H-1,2,3-triazol-2-yl)piperidin-1-yl)-5-(trifluoromethyl)pyrimidine], the “% activity at 3 μM” value is reported as 66.18%.

With `Clc1cnc(N2CCC(n3ncc(COc4ccc(Cl)nc4)n3)CC2)nc1` [Example 98, 5-Chloro-2-{4-[4-(6-chloro-pyridin-3-yloxymethyl)-[1,2,3]triazol-2-yl]-piperidin-1-yl}-pyrimidine], the “% activity at 3 μM” value is reported as 17.16%.

Turning to `CC1CC(n2ncc(COc3ccc(-n4cnnn4)cc3F)n2)CCN1c1ncc(C(F)(F)F)cn1` (stereo not shown) [Example 70, 2-(4-(4-((2-Fluoro-4-(1H-tetrazol-1-yl)phenoxy)methyl)-2H-1,2,3-triazol-2-yl)-2-methylpiperidin-1-yl)-5-(trifluoromethyl)pyrimidine], the “% activity at 3 μM” value was found to be 66.77%.

Take `O=S(=O)(C1CC1)N1CCC(n2ncc(COc3ccc(-n4cnnn4)nc3)n2)CC1` [Example 41, 5-((2-(1-(Cyclopropylsulfonyl)piperidin-4-yl)-2H-1,2,3-triazol-4-yl)methoxy)-2-(1H-tetrazol-1-yl)pyridine]: the “% activity at 3 μM” value is 42.63%.

As to `Clc1cnc(N2CCC(n3ncc(COc4ccccc4-c4nnco4)n3)CC2)nc1` [Example 96, 5-Chloro-2-{4-[4-(2-[1,3,4]oxadiazol-2-yl-phenoxymethyl)-[1,2,3]triazol-2-yl]-piperidin-1-yl}-pyrimidine], the “% activity at 3 μM” value stood at 28.90%.

In the case of `O=S(=O)(C1CCCCC1)N1CCC(n2ncc(COc3ccc(-n4cnnn4)nc3)n2)CC1` [Example 44, 5-((2-(1-(Cyclohexylsulfonyl)piperidin-4-yl)-2H-1,2,3-triazol-4-yl)methoxy)-2-(1H-tetrazol-1-yl)pyridine], the “% activity at 3 μM” value was found to be 70.92%.

Take `CCc1cnc(N2CCC(n3cc(COc4ccc(-n5cnnn5)cc4F)cn3)CC2)nc1` [Example 19, 5-Ethyl-2-(4-(4-((2-fluoro-4-(1H-tetrazol-1-yl)phenoxy)methyl)-1H-pyrazol-1-yl)piperidin-1-yl)pyrimidine]: the “% activity at 3 μM” value is recorded as 80.10%.

Regarding `O=C(CC1CCNCC1)N1CCC(n2ncc(COc3ccc(-n4cnnn4)nc3)n2)CC1` [Example 51, 1-(4-(4-((6-(1H-Tetrazol-1-yl)pyridin-3-yloxy)methyl)-2H-1,2,3-triazol-2-yl)piperidin-1-yl)-2-(piperidin-4-yl)ethanone hydrochloride], the “% activity at 3 μM” value amounted to 57.93%.

As for `FC(F)(F)c1cnc(N2CCC(n3ncc(COCc4ccccc4)n3)CC2)nc1` [Example 100, 2-[4-(4-benzyloxymethyl-[1,2,3]triazol-2-yl)-piperidin-1-yl]-5-trifluoromethyl-pyrimidine], the “% activity at 3 μM” value was 10.69%.

In the case of `CS(=O)(=O)c1ccc(OCc2cnn(C3CCN(c4ncc(F)cn4)CC3)n2)c(F)c1` [Example 107, 5-Fluoro-2-(4-(4-((2-fluoro-4-(methylsulfonyl)phenoxy)methyl)-2H-1,2,3-triazol-2-yl)piperidin-1-yl)pyrimidine], the “% activity at 3 μM” value is 36.83%.

Take `O=C(c1ncc(Br)cn1)N1CCC(n2ncc(COc3ccc(-n4cnnn4)nc3)n2)CC1` [Example 62, (4-(4-((6-(1H-tetrazol-1-yl)pyridin-3-yloxy)methyl)-2H-1,2,3-triazol-2-yl)piperidin-1-yl)(5-bromopyrimidin-2-yl)methanone]: the “% activity at 3 μM” value was found to be 32.06%.

Consider `O=C(OCc1ccccc1)N1CCC(n2ncc(COc3ccc(-n4cnnn4)cc3F)n2)CC1` [Example 102, Benzyl 4-(4-((2-fluoro-4-(1H-tetrazol-1-yl)phenoxy)methyl)-2H-1,2,3-triazol-2-yl)piperidine-1-carboxylate], for which the “% activity at 3 μM” value amounted to 38.98%.

Take `CCc1cnc(N2CCC(n3ncc(COc4ccc(-n5cnnn5)cc4F)c3C(F)(F)F)CC2)nc1` [Example 68, 5-Ethyl-2-(4-(4-((2-fluoro-4-(1H-tetrazol-1-yl)phenoxy)methyl)-5-(trifluoromethyl)-1H-pyrazol-1-yl)piperidin-1-yl)pyrimidine]: the “% activity at 3 μM” value stood at 74.11%.

Turning to `O=C(c1cccnc1)N1CCC(n2ncc(COc3ccc(-n4cnnn4)cc3F)n2)CC1` [Example 112, (4-(4-((2-Fluoro-4-(1H-tetrazol-1-yl)phenoxy)methyl)-2H-1,2,3-triazol-2-yl)piperidin-1-yl)(pyridin-3-yl)methanone], the “% activity at 3 μM” value came out at 42.30%.

Turning to `Fc1cc(-n2cnnn2)ccc1OCc1cnn(C2CCN(c3ncc(C(F)(F)F)cn3)CC2)n1` [Example 15, 2-{4-[4-(2-Fluoro-4-tetrazol-1-yl-phenoxymethyl)-[1,2,3]triazol-2-yl]-piperidin-1-yl}-5-trifluoromethyl-pyrimidine], the “% activity at 3 μM” value is 75.63%.

For `CS(=O)(=O)c1ccc(OCc2cnn(C3CCN(c4ncc(C(F)(F)F)cn4)CC3)n2)c(F)c1` [Example 14, 2-{4-[4-(2-Fluoro-4-methanesulfonyl-phenoxymethyl)-[1,2,3]triazol-2-yl]-piperidin-1-yl}-5-trifluoromethyl-pyrimidine], the “% activity at 3 μM” value amounted to 74.80%.

For `CCc1cnc(N2CCC(n3ccc(COc4ccc(-n5cnnn5)cc4F)n3)CC2)nc1` [Example 113, 5-Ethyl-2-(4-(3-((2-fluoro-4-(1H-tetrazol-1-yl)phenoxy)methyl)-1H-pyrazol-1-yl)piperidin-1-yl)pyrimidine], the “% activity at 3 μM” value is listed as 57.71%.

`Clc1cnc(N2CCC(n3ncc(COc4ccc(-n5cncn5)cc4)n3)CC2)nc1` [Example 93, 2-(4-(4-((4-(1H-1,2,4-Triazol-1-yl)phenoxy)methyl)-2H-1,2,3-triazol-2-yl)piperidin-1-yl)-5-chloropyrimidine]: the “% activity at 3 μM” value stood at 50.84%.

With `FC(F)(F)c1cnc(N2C3CCC2CC(n2ncc(COc4ccc(-n5cnnn5)nc4)n2)C3)nc1` (stereo not drawn) [Example 71, exo-3-(4-((6-(1H-Tetrazol-1-yl)pyridin-3-yloxy)methyl)-2H-1,2,3-triazol-2-yl)-8-(5-(trifluoromethyl)pyrimidin-2-yl)-8-azabicyclo[3.2.1]octane], the “% activity at 3 μM” value is reported as 70.78%.

As for `CCc1cnc(N2CCC(n3cc(COc4ccc(-n5cnnn5)cc4F)c(C(F)(F)F)n3)CC2)nc1` [Example 66, 5-Ethyl-2-(4-(4-((2-fluoro-4-(1H-tetrazol-1-yl)phenoxy)methyl)-3-(trifluoromethyl)-1H-pyrazol-1-yl)piperidin-1-yl)pyrimidine], the “% activity at 3 μM” value was determined as 80.00%.

As to `Fc1cc(-n2cnnn2)ccc1OCc1cnn(C2CCN(c3ncc(Cl)cn3)CC2)n1` [Example 16, 5-Chloro-2-{4-[4-(2-fluoro-4-tetrazol-1-yl-phenoxymethyl)-[1,2,3]triazol-2-yl]-piperidin-1-yl}-pyrimidine], the “% activity at 3 μM” value was found to be 70.31%.

For `CC(C)(C)OC(=O)N1CCC(n2cc(COc3ccc(-n4cnnn4)cc3F)cn2)CC1` [Example 7, 4-[4-(2-Fluoro-4-tetrazol-1-yl-phenoxymethyl)-pyrazol-1-yl]-piperidine-1-carboxylic acid tert-butyl ester], the “% activity at 3 μM” value is on record as 78.16%.

Regarding `Clc1cnc(N2CCC(n3ncc(COc4ccc(-n5ccnc5)cc4)n3)CC2)nc1` [Example 94, 2-(4-(4-((4-(1H-Imidazol-1-yl)phenoxy)methyl)-2H-1,2,3-triazol-2-yl)piperidin-1-yl)-5-chloropyrimidine], the “% activity at 3 μM” value came out at 49.73%.

As for `CCc1cnc(N2CCC(n3ncc(COc4ccc(-n5cncn5)nc4C)n3)CC2)nc1` [Example 65, 5-Ethyl-2-(4-(4-((2-methyl-6-(1H-1,2,4-triazol-1-yl)pyridin-3-yloxy)methyl)-2H-1,2,3-triazol-2-yl)piperidin-1-yl)pyrimidine], the “% activity at 3 μM” value worked out at 70.03%.

Staying with this test, now noted: 3 μM compound; relative to maximal activity of 5-Ethyl-2-{4-[4-(4-tetrazol-1-yl-phenoxymethyl)-thiazol-2-yl]-piperidin-1-yl}-pyrimidine (=100%); IC-GPCR2 stably expressing CHO cells, 30 minutes; 3 µM.
As for `Fc1cnc(N2C3CCC2CC(n2ncc(COc4ccc(-n5cnnn5)nc4)n2)C3)nc1` (stereo not drawn) [Example 75, exo-3-(4-((6-(1H-Tetrazol-1-yl)pyridin-3-yloxy)methyl)-2H-1,2,3-triazol-2-yl)-8-(5-fluoropyrimidin-2-yl)-8-azabicyclo[3.2.1]octane], the “% activity at 3 μM” value is listed as 47.94%.
